Measured values: patent US9851346B2, “Chemical sensitivity screening test” (BRYSON PATENTS INC., priority 2014, dated 2017)

How the values were obtained:
[1] = Strip test screening of various compounds (Example 17, FIGS. 10-11; strip composition not stated)
Description: Now referring to FIG. 10, the pain relief medication—ASA, ibuprofen and acetaminophen were screened in the presence of alcohol (Ethanol)—50 ml water and 50 ml of 40% vol/vol ethanol.
Now referring to FIG. 11, various sweetening agents or table salts were dissolved in 75 ml of filtered water and exposed to UV lamp for 3 minutes or 5 minutes.

[2] = Strip test, Screening Composition 1 (Examples 1-5): fluorescence under UV after contact with dissolved specimen; conditions: FIG. 9; increasing amounts dissolved in 50 ml of filtered water; strip test from Example 1
Description: (§1) Prior to testing, the specimen of substance is placed directly into a solvent. Preferably, the solvent is a solvent such as distilled or filtered water. If the specimen is in tablet form, it should be crushed into a powder form and then added to the solvent. If the specimen is in other form, it is preferably disaggregated into smaller pieces. The powder or pieces are then left to sit in the solvent until dissolved, for a period ranging from a few second to minutes, hours or even days before it may be tested with the composition and/or strip test of the present invention. Preferably, the contact with the solvent is at least eight hours. A liquid or gel form can be put directly into the solvent. […]
The contacted test strip is then immediately observed under UV light in a dark room. In the presence of a predicted adverse reaction of the substance, the strip test will show the absence of fluorescence, or the fluorescence will decrease, or even completely disappear over a short period of time (about 90 seconds). […] According to an embodiment, the degree by which fluorescence disappears after initial exposure to the substance may be used to quantify the relative adverseness of the substance. For example, a slow disappearance of fluorescence represents a less adverse substance than a substance for which the fluorescence disappears rapidly over the course of the testing procedure. […]

[3] = Strip test, Screening Composition 3 with Activator 1 / Activator 2 (Examples 11-16); conditions: FIGS. 5-8; 3 to 5 minutes under UV light
Description: Once the urine has been provided, it needs to be cooled to a temperature of 18.3° C. This is the best temperature for testing in this case. When preparing for the test, the urine should be divided into two different groups. The first group is to add Activator 1 and observe the reaction. The second group is to add Activator 2 and observe the reaction.
To perform the Activator 1 test, take approximately 20 ml of urine and add 5 ml of the activator solution. Allow this to sit for 20 minutes under ultraviolet light. Once the 20 minutes has passed, place the strip test under ultraviolet light in a darkened room and apply approximately 1 ml of urine/Activator 1 solution onto the strip test. After the urine/Activator 1 solution has been applied to the strip test, one simply observes the reaction. […]
See FIGS. 5 to 8 for comparisons of presence and absence of the contaminant biomarkers (protein crystals) reaction results. The degree by which fluorescence disappears after initial exposure of urine/activator to the strip test may be used to quantify the relative presence of the factor in the urine. For example, a slow disappearance of fluorescence represents less presence of the pesticide biomarker than a urine/activator sample for which the fluorescence disappears rapidly over the course of the testing procedure.

[4] = Strip test, Screening Composition 2 (Examples 6-10): fluorescence under UV after contact with dissolved specimen; conditions: FIGS. 3-4; observed under UV light, 3 to 5 minutes
Description: as §1, with “substance to be tested” for “substance”, “powder” for “powder form”, “another” for “other”, “small” for “smaller”, “mixed in and/or dissolved” for “dissolved,”, “seconds” for “second”
For testing, the strip test prepared above is placed under UV light in a room with reduced lighting to allow the reaction to be observed, and is contacted with the specimen of substance prepared above. […] In the presence of a predicted adverse reaction of the substance, the strip test will show the absence of fluorescence or the fluorescence will decrease, or even completely disappear over the short period of time (about 3 to 5 minutes). […]
See FIGS. 3 and 4 for comparisons of adverse and non-adverse reaction results. The degree by which fluorescence disappears after initial exposure to the substance may be used to quantify the relative adverseness of the substance. […]

In the case of `CC(C)Cc1ccc(C(C)C(=O)O)cc1` (stereo not shown) [ibuprofen], the “Effect of the medication on adverseness in the presence of alcohol (strip test)” value (from here on “Effect of the medication on adverseness”) [1] is reported as “diminishes adverseness to varying degrees” and the “Adverseness indicated by strip test” value [2] is reported as “is not”.

With `OC[C@H]1O[C@H](O[C@]2(CCl)O[C@H](CCl)[C@@H](O)[C@@H]2O)[C@H](O)[C@@H](O)[C@H]1Cl` [Sucralose] the “Adverseness / fluorescence indicated by strip test, 5 minute exposure” value [1] was “depleted fluorescence, indicative of a mild adverse effect” and the “Adverseness indicated by strip test, initially” value [1] was “initially not adverse”.

For `C[C@H](N)Cc1ccccc1` [Dextroamphetamine XR 5 mg, Dextroamphetamine], the “Strip test appearance (bright yellow glow = does not cause an adverse effect; dark color = may cause an adverse effect)” value [3] was “turns a dark color” and the “Strip test appearance (bright yellow glow = does not cause an adverse effect; dark color = may cause an adverse effect)” value [4] was “turns a dark color”.

For `[Cl-].[Na+]` [Sodium chloride (iodized), Sodium chloride], the “Adverseness / fluorescence indicated by strip test” value ([1]; FIG. 11, dissolved in 75 ml of filtered water, exposed to UV lamp for 3 minutes or 5 minutes) was “appears to not be adverse”.

In the case of `CC(=O)Nc1ccc(O)cc1` [acetaminophen], the “Effect of the medication on adverseness” value [1] is reported as “diminishes adverseness to varying degrees”.

For `CC(=O)Oc1ccccc1C(=O)O` [ASA], the “Effect of the medication on adverseness” value [1] was “diminishes adverseness to varying degrees” and the “Adverseness indicated by strip test” value [2] was “appears to be adverse”.

With `CCO` [Alcohol, Ethanol] the “Adverseness indicated by strip test, alcohol alone” value [1] was “appears to be adverse”.

With `CCOc1nc2cccc(C(=O)O)c2n1Cc1ccc(-c2ccccc2-c2nnn[nH]2)cc1` [candesartan 8 mg, candesartan] the “Strip test appearance (bright yellow glow = does not cause an adverse effect; dark color = may cause an adverse effect)” value [3] was “glows a bright yellow color” and the “Strip test appearance (bright yellow glow = does not cause an adverse effect; dark color = may cause an adverse effect)” value [4] was “glows a bright yellow color”.
